Measured values published in PubChem BioAssay (NCI).
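Cells were grown in 96-well plates and exposed to each compound for 48 hours at five concentrations; endpoints were interpolated linearly between bracketing concentrations, or set to the highest concentration if not reached. Here, GI50 denotes the concentration required for 50% inhibition of growth. TGI: total growth inhibition.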

How the values were obtained:
Assay in all cases: NCI-60 cell line screen, 48 h
[1] = system: HT29 colon
[2] = system: SK-MEL-28 melanoma
[3] = system: A549 NSCLC
[4] = system: HCT-15 colon
[5] = system: A498 renal
[6] = system: SK-OV-3 ovarian
[7] = system: SF-268 CNS
[8] = system: SNB-19 CNS
[9] = system: M14 melanoma
[10] = system: SK-MEL-5 melanoma
[11] = system: OVCAR-5 ovarian
[12] = system: CCRF-CEM leukemia
[13] = system: BT-549 breast
[14] = system: NCI-H522 lung
[15] = system: MALME-3M melanoma
[16] = system: SN12C renal
[17] = system: HOP-62 NSCLC
[18] = system: HL-60(TB) leukemia
[19] = system: NCI-H226 lung
[20] = system: MDA-MB-231 breast
[21] = system: HOP-92 NSCLC
[22] = system: OVCAR-4 ovarian
[23] = system: OVCAR-8 ovarian
[24] = system: HCT-116 colon
[25] = system: UACC-257 melanoma
[26] = system: MDA-MB-435
[27] = system: HS 578T breast
[28] = system: UO-31 renal
[29] = system: SK-MEL-2 melanoma
[30] = system: SF-539 CNS
[31] = system: KM12 colon
[32] = system: OVCAR-3 ovarian
[33] = system: NCI/ADR-RES ovarian
[34] = system: 786-0 renal
[35] = system: IGROV1 ovarian
[36] = system: NCI-H23 lung
[37] = system: CAKI-1 renal
[38] = system: SNB-75 CNS
[39] = system: MCF7 breast
[40] = system: U251 CNS
[41] = system: T-47D breast
[42] = system: LOX IMVI melanoma
[43] = system: RPMI-8226 leukemia
[44] = system: SW-620 colon
[45] = system: TK-10 renal
[46] = system: COLO 205 colon
[47] = system: EKVX NSCLC
[48] = system: PC-3 prostate
[49] = system: ACHN renal
[50] = system: UACC-62 melanoma
[51] = system: NCI-H460 lung
[52] = system: MOLT-4 leukemia
[53] = system: SF-295 CNS
[54] = system: RXF 393 renal
[55] = system: DU-145 prostate
[56] = system: HCC-2998 colon

Cc1ncc(C(=O)Nc2ccc(CN3CCN(C)CC3)c(C(F)(F)F)c2)cc1C#Cc1c(N)ncc2ccc(F)cc12
GI50 [1]: 0.0689 µM
TGI [1]: 0.651 µM
GI50 [2]: 0.415 µM
TGI [2]: 1.23 µM
GI50 [3]: 0.631 µM
TGI [3]: 1.44 µM
GI50 [4]: 0.559 µM
TGI [4]: 3.15 µM
GI50 [5]: 0.93 µM
TGI [5]: 1.74 µM
GI50 [6]: 4.79 µM
TGI [6]: 12 µM
GI50 [7]: 0.717 µM
TGI [7]: 2.5 µM
GI50 [8]: 0.787 µM
TGI [8]: 1.49 µM
GI50 [9]: 0.128 µM
TGI [9]: 0.69 µM
GI50 [10]: 0.678 µM
TGI [10]: 1.53 µM
GI50 [11]: 0.669 µM
TGI [11]: 3.03 µM
GI50 [12]: 0.809 µM
TGI [12]: 2.14 µM
GI50 [13]: 1.49 µM
TGI [13]: 4.12 µM
GI50 [14]: 0.668 µM
TGI [14]: 1.83 µM
GI50 [15]: 0.105 µM
TGI [15]: 0.601 µM
GI50 [16]: 0.422 µM
TGI [16]: 3.05 µM
GI50 [17]: 1.18 µM
TGI [17]: 8.18 µM
GI50 [18]: 0.319 µM
TGI [18]: 2.06 µM
GI50 [19]: 0.624 µM
TGI [19]: 3.65 µM
GI50 [20]: 0.129 µM
TGI [20]: 0.743 µM
GI50 [21]: 0.0489 µM
TGI [21]: 0.468 µM
GI50 [22]: 2.6 µM
TGI [22]: 10.8 µM
GI50 [23]: 0.931 µM
TGI [23]: 2.41 µM
GI50 [24]: 0.176 µM
TGI [24]: 0.873 µM
GI50 [25]: 0.649 µM
TGI [25]: 3.22 µM
GI50 [26]: 0.17 µM
TGI [26]: 1.04 µM
GI50 [27]: 0.588 µM
TGI [27]: 2.74 µM
GI50 [28]: 0.602 µM
TGI [28]: 2.8 µM
GI50 [29]: 1.05 µM
TGI [29]: 5.77 µM
GI50 [30]: 0.624 µM
TGI [30]: 1.3 µM
GI50 [31]: 0.005 µM
TGI [31]: 0.646 µM
GI50 [32]: 0.789 µM
TGI [32]: 1.54 µM
GI50 [33]: 1.26 µM
TGI [33]: 4.25 µM
GI50 [34]: 0.756 µM
TGI [34]: 1.56 µM
GI50 [35]: 0.301 µM
TGI [35]: 6.27 µM
GI50 [36]: 0.596 µM
TGI [36]: 1.37 µM
GI50 [37]: 1.05 µM
TGI [37]: 6.16 µM
GI50 [38]: 0.774 µM
TGI [38]: 2.27 µM
GI50 [39]: 0.503 µM
TGI [39]: 1.33 µM
GI50 [40]: 0.826 µM
TGI [40]: 1.58 µM
GI50 [41]: 4.1 µM
TGI [41]: 16.3 µM
GI50 [42]: 0.184 µM
TGI [42]: 0.841 µM
GI50 [43]: 0.673 µM
TGI [43]: 2.17 µM
GI50 [44]: 0.274 µM
TGI [44]: 1.07 µM
GI50 [45]: 0.715 µM
TGI [45]: 1.52 µM
GI50 [46]: 0.197 µM
TGI [46]: 1.23 µM
GI50 [47]: 1.54 µM
TGI [47]: 9.37 µM
GI50 [48]: 0.87 µM
TGI [48]: 3.14 µM
GI50 [49]: 0.374 µM
TGI [49]: 3.23 µM
GI50 [50]: 0.282 µM
TGI [50]: 2.84 µM
GI50 [51]: 0.643 µM
TGI [51]: 1.47 µM
GI50 [52]: 0.579 µM
TGI [52]: 1.74 µM
GI50 [53]: 3.45 µM
TGI [53]: 11.3 µM
GI50 [54]: 0.608 µM
TGI [54]: 1.29 µM
GI50 [55]: 0.692 µM
TGI [55]: 1.39 µM
GI50 [56]: 1.01 µM
TGI [56]: 7.81 µM
